Data published in patent publication US20030118646A1, “(R, S'),(R, R')-amphetaminil, compositions and uses thereof” (priority 2001, published 2003).

Columns and labels:
[1] = tested on: stereotyped behaviour in normal rats; test: Induction of stereotyped behaviour in normal rats (stereotypy score 0-7); type: in vivo, Male Wistar rats; conditions: for Stereotypy (Peak) / Stereotypy (Total): normal rats, dose not given; for Stereotypy (Peak) / Stereotypy (Total) / Effect on stereotypy: s.c.; for Stereotypy (Peak): stereotypy score at time of peak effect; for Stereotypy (Total): total stereotypy score; for Effect on stereotypy: whole dose range tested (amphetamine 0.1-5, fusaric acid 20-80, amphetaminils 0.1-10 mg/kg), 300 min
Procedure: (§1) Male Wistar rats (n=4 per group) were randomly allocated to each drug treatment group. Drugs were administered such that, with the exception of fusaric acid, each rat in each group received all doses of the drug or vehicle in a semi random manner according to the modified Latin Square in Table 1. Compounds were administered at the doses: 0.1, 1 and 10 mg/kg s.c. in 100% DMSO (vehicle). Amphetamine was administered at 0.1, 1 and 5 mg/kg s.c. in saline (vehicle). Fusaric acid was administered at 20, 40 and 80 mg/kg s.c. in saline (vehicle). Rats received each dose of fusaric acid (20, 40 and 80 mg/kg), doses given in order, starting with vehicle. A one-week interval was provided between doses.
(§2) At the start of the experiment, rats were placed in standard perspex behaviour boxes with a visible grid on the floor to allow determination of locomotor activity. The animals were allowed to acclimatise to their environment for 1 hour prior to drug/saline administration. Following drug administration animals were returned to the behaviour cages and locomotor activity was assessed for a further 5 hours or until baseline (zero activity for 30 minutes) was achieved, whichever was sooner. Locomotor activity was assessed by videoing the rats throughout the experiment, and counting the number of times a rat crossed a grid line over a period of 5 minutes every 10 minutes. Throughout the experiment animals were scored for stereotyped behaviours for 15 seconds every 10 minutes by a trained observer using the scoring methods described in Table 2.
The mean and standard error for stereotypy activity for 15 seconds every 10 minutes for each rat at each time point was determined. […] Cumulative activity during the 300 min was also calculated, and the effect of dose of drug was analyzed by Kruskall Wallis one-way ANOVA (GraphPad Prizm). Data was also analysed for significant fit to a sigmoidal-shaped log dose-response curve using non-linear regression analysis (GraphPad Prizm)

[2] = tested on: locomotor activity in normal rats; test: Locomotor activity in normal rats (grid line crossings); type: in vivo, Male Wistar rats; conditions: for Locomotor (Peak) / Locomotor (Total): normal rats, dose not given; for Locomotor (Peak) / Locomotor (Total) / Effect on locomotor activity: s.c.; for Locomotor (Peak): at time of peak effect; for Locomotor (Total): total (cumulative) effect; for Ratio (Peak): ratio locomotor/stereotypy at time of peak effect; for Ratio (Total): ratio locomotor/stereotypy, total effect; for Effect on locomotor activity: whole dose range tested (amphetamine 0.1-5, fusaric acid 20-80, amphetaminils 0.1-10 mg/kg), 300 min
Procedure: as §1, §2
Locomotor activity Data The mean and standard error for locomotor activity during 10 minutes for each rat at each time point was determined. […] Cumulative activity during the 300 min was also calculated, and the effect of dose of drug was analyzed by 1 way repeated measures ANOVA followed by Dunnett's test (GraphPad Prizm). Data was also analysed for significant fit to a sigmoidal-shaped log dose-response curve using non-linear regression analysis (GraphPad Prizm).

| Compound | Duration of stereotypy ([1]; 10 mg/kg s.c.) | Differences in overall stereotypy between dose groups ([1]; 0.1-10 mg/kg s.c., Kruskall Wallis) | Stereotypy (Peak) [1] | Stereotypy (Total) [1] | Effect on stereotypy [1] | Locomotor (Peak) [2] | Locomotor (Total) [2] | Ratio (Peak) [2] | Ratio (Total) [2] | Effect on locomotor activity [2] | Overall stereotypy during the 300 min ([1]; 5 mg/kg s.c.) | Time of maximum effect on locomotor activity after administration ([2]; 5 mg/kg s.c.) [min] | Cumulative locomotor activity during the 300 min ([2]; 5 mg/kg s.c., compared to vehicle) | Stereotypy compared with racemic amphetaminil ([1]; FIGS. 7 and 8) | Locomotor/stereotypy ratio compared with racemic amphetaminil ([2]; at both the time of peak effect and total effect) |
| --- | --- | --- | --- | --- | --- | --- | --- | --- | --- | --- | --- | --- | --- | --- | --- |
| CC(Cc1ccccc1)NC(C#N)c1ccccc1 (racemic) [Racemic amphetaminil, alpha-[(1-methyl-2-phenylethyl)amino]benzeneacetonitrile] | sustained for the duration of the experiment | did not reach statistical significance | 5.0 | 115 | increased stereotypy in a log dose-related manner | 37 | 560 | 7.4 | 4.9 | increased locomotor activity only at the highest dose of 10 mg/kg | – | – | – | – | – |
| CC(N)Cc1ccccc1 (stereo not shown) [Amphetamine] | – | – | 5 | 81 | log dose-related increase stereotypy | 125 | 850 | 25 | 10.5 | dose-related increase in locomotor activity | tended to increase overall stereotypy | 30 | significantly increased | – | – |
| C[C@H](Cc1ccccc1)NC(C#N)c1ccccc1 (stereo partly drawn) [(R,R′), (R,S′)-amphetaminil, alpha-[(1R-methyl-2-phenylethyl)amino]-benzeneacetonitrile] | – | – | 3.3 | 57 | tended to increase stereotypy at 10 mg/kg | 62 | 625 | 18.8 | 11 | increased locomotor activity only at the highest dose of 10 mg/kg | – | – | – | less stereotypy than the racemic form of amphetaminil | higher ratio |
